System: angiotensin II type 1A receptor (AT1AR)
Experiment: GRK2-C20 induced ligand-independent arrestinGFP translocation to the AT1AR in U2OS cells (INCell Analyzer)
Assay type: cell-based
Experimental: U2OS cells stably expressing arrestinGFP and the angiotensin II type 1A receptor (AT1 AR) were transiently transduced with human GRK2-C20 using a baculovirus expression system. A range of GRK2-C20 expression levels was obtained by using varying amounts (serial dilution) of the GRK2-C20 baculovirus.
To test whether the ligand-independent arrestinGFP translocation could be blocked by an antagonist/inverse agonist of the AT1AR, the cells were treated with losartan. Losartan is a nonpeptide molecule that functions as an antagonist/inverse agonist of the AT1AR. Losartan (1 μM final concentration) was added to the cells either immediately after transduction for an 18 hour incubation or 15 hours after transduction for a 3 hour incubation. At the end of the incubation, the cells were analyzed for arrestinGFP translocation using the INCell Analyzer system.

CCCCc1nc(Cl)c(CO)n1Cc1ccc(-c2ccccc2-c2nnn[nH]2)cc1 [losartan, Losartan]
effect on ligand-independent translocation of arrestinGFP to the AT1AR induced by expression of GRK2-C20 (losartan 1 μM final concentration, 3 hour or 18 hour incubation, U2OS cells stably expressing arrestinGFP and AT1AR): blocks the ligand-independent translocation of arrestinGFP to the AT1AR
inhibition of the ligand-independent translocation of arrestinGFP to the AT1AR (losartan 1 μM, 18 hour incubation, lower levels of GRK2-C20 expression (1:64, 1:128, and 1:256 dilutions of baculovirus)): greater than 90%

From patent publication US7332292B2, “Constitutively translocating cell line” (priority 2002, dated 2008)
